Results: publication PMC10660337, “Mutate and Conjugate: A Method to Enable Rapid In-Cell Target Validation” (ACS Chemical Biology, 2023)

Legend:
[1] = test system: T1, BRD4(1)^L94C transiently expressed in HEK293T cells; assay: OXFBD04 (3) competition assay in cells; assay type: cell-based, human; conditions: OXFBD04 30 min preincubation, then probe 10 µM for 1 h
T1 construct: the L94C mutation in the first bromodomain of BRD4 [BRD4(1)]; StrepII; expressed in transfected cells; host or cells: HEK293T
Method: Compound engagement with BRD4(1)^L94C was further validated by using an immunoprecipitation (IP) assay (Figure S22). Here, transfected HEK293T cells expressing StrepII-tagged BRD4(1)^L94C or StrepII-tagged BRD4(1)^WT were incubated with compound 42 before being lysed. The StrepII-tagged bromodomains were then pulled down using anti-StrepII antibodies, and the samples were separated by SDS-PAGE for analysis. […]
(§1) reaction mix was taken and 8 µL of Lamelli buffer added, and the samples denatured by heating at 95 °C for 10 min. Samples were separated by gel electrophoresis on NuPAGE™ 4–12%, Bis-Tris precast polyacrylamide gels (Thermofisher). Following electrophoresis, gels were stained for 15 min with InstantBlueTM Coomasie® stain (Abcam), destained, and imaged using Bio-rad molecular imager.
(§2) Bio-rad Image Lab 6.1 was used to process the data.
(§3) In-cell target engagement
In-cell labeling by clickable probes […]
(§4) Gels were imaged for fluorescence using Bio-rad molecular imager and then stained for 15 min with InstantBlueTM Coomasie® stain (Abcam), destained, and imaged using Bio-rad molecular imager. […]
(§5) Transfected HEK293T cells at ~90% confluency were incubated for 30 min with a DMSO control or varying concentrations of OXFBD04 diluted in Opti-MEM media. […] Cells were then harvested, processed, and analysed using the previously described protocol above. […]

[2] = test system: BRD4(1,2)^L94C transiently expressed in HEK293T cells; assay: In-cell labeling of tandem bromodomain; assay type: cell-based, human
Method: as §1, §2, §3
(§6) In-cell labeling by clickable probes
(§7) Transfected HEK293T cells at ~90% confluency were incubated for 1 h with a DMSO control (0.5% DMSO final concentration) or a click probe (10 µM, 0.5% DMSO final concentration) diluted in Opti- […]
Cells were then harvested and lysed using the previously described protocol above. The resulting cell lysates were diluted to 2 mg/mL using the previously described protocol above. […]
as §4, §5

BRD4(1)^WT = molecular target: T2, BRD4(1)^WT (Homo sapiens, UniProt O60885); assay: Fluorescent labeling of purified protein (CuAAC with TAMRA-PEG3-azide, in-gel fluorescence); assay type: binding; conditions: 50 μM probe, 10 μM protein, 4 h, 37 °C, then CuAAC 1 h
T2 construct: Characterization of His6-BRD4(1)WT; made in house; host or cells: E. coli BL21 (DE3)
Method: When 28, 29, 30, and 42 were incubated with either purified BRD4(1)^L94C or BRD4(1)^WT and subjected to a copper(I)-catalyzed alkyne–azide click reaction (CuAAC) reaction with the fluorescent TAMRA-PEG3-azide dye, all clickable probes labeled the mutant protein and could be visualized using fluorescence imaging of a gel (Figure 6).
Figure 6 Clickable probes 28, 29, 30, and 42 covalently label BRD4(1)^L94C and undergo a subsequent CuAAC reaction with TAMRA-PEG3 azide to fluorescently label the protein, as shown by in-gel fluorescence imaging. Compounds 28, 29, 30, 41, and 42 (50 μM) were incubated with purified BRD4(1)^L94C or BRD4(1)^WT (10 μM) for 4 h at 37 °C, followed by CuAAC reaction with TAMRA-PEG3 azide for 1 h and separation of components by SDS-PAGE. For all compounds other than 30, only labeling of BRD4(1)^L94C was observed.
50 mM DMSO stock solutions of the compounds were serially diluted, and dispensed into wells (5 μL).
The protein-peptide mixes (7 μL) for each combination were prepared following the specified final assay concentration (Table S19), and dispensed into wells. […]
Assays were performed in 1.5 mL Eppendorf tubes at room temperature, in the dark, and gently shaken, unless otherwise stated. […] Data was analysed and processed using MassLynx. […]
Gels were imaged for fluorescence using Bio-rad molecular imager and then stained for 15 min with […]

[3] = test system: T3, BRD4(1)^WT transiently expressed in HEK293T cells; assay: In-cell labeling by clickable probes, in-gel fluorescence; assay type: cell-based, human; conditions: 10 μM probe, 1 h
T3 construct: the first bromodomain of BRD4 [BRD4(1)]; StrepII; expressed in transfected cells; host or cells: HEK293T
Method: To evaluate proteome-wide selectivity of the clickable probes, HEK293T cells transiently expressing BRD4(1)^L94C or BRD4(1)^WT were incubated with 10 μM of probes 28–30 and 42 for 1 h before the cells were lysed and the CuAAC reaction with TAMRA-PEG3-azide was conducted (Figure 7A). […]
as §1, §2, §3, §6, §7
Cells were then harvested and lysed using the previously described protocol above. The resulting cell lysates were diluted to 2 mg/mL using the previously described protocol above.
Cell lysates (50 µL) were then incubated with TAMRA-PEG3-Azide (200 µM), TCEP·HCl (2 mM), TBTA (200 µM), and CuSO4 (2 mM), for 1 h at rt in the dark. Samples were then prepared and separated by gel electrophoresis using the previously described protocol above.
Gels were imaged for fluorescence using Bio-rad molecular imager and then stained for 15 min with InstantBlueTM Coomasie® stain (Abcam), destained, and imaged using Bio-rad molecular imager.
Typically, the very bottom of the gel was removed prior to imaging due to residual, unreacted, TAMRA-PEG3-Azide, which would cause oversaturation and poor image quality. […]
MEM media. Cells were then harvested and lysed using the previously described protocol above. […]

Labeling of purified BRD4(1)^WT, in-gel fluorescence (BRD4(1)^WT) | Structure (SMILES) | BRD4(1)^L94C labeling by probe with increasing concentration of OXFBD04 (3) [1] | In-cell labeling of BRD4(1,2)^L94C (fluorescent band ∼80 kDa) [2] | In-cell labeling of BRD4(1)^WT (fluorescent band ∼49 kDa) [3]
– | C#CCOc1cc(NC(=O)C=C)ccc1N1CCCC1=O [Compound 42] | decreased levels | selectively label | –
low level | C#CCOc1ccc(-c2c(C)noc2NC(=O)C=C)cc1 [Compound 30] | concomitant reduction | – | not visible
